Reference: patent US20040063662A1, “Selenophene anti-tumor agents” (priority 1996, published 2004)

Assays:
K-562 = test: NCI human tumor cell panel: K-562 (Leukemia); format: cell-based; conditions: K562, K-562, Leukemia
RPMI-8226 = test: NCI human tumor cell panel: RPMI-8226 (Leukemia); format: cell-based; conditions: RPMI-8226, Leukemia
SR = test: NCI human tumor cell panel: SR (Leukemia); format: cell-based; conditions: Leukemia
A549/ATCC = test: NCI human tumor cell panel: A549/ATCC (Non-Small Cell Lung Cancer); format: cell-based; conditions: Non-Small Cell Lung Cancer
EKVX = test: NCI human tumor cell panel: EKVX (Non-Small Cell Lung Cancer); format: cell-based; conditions: Non-Small Cell Lung Cancer
NCI-H322M = test: cells; format: cell-based; conditions: Homo sapiens, Non-Small Cell Lung Cancer
NCI-H460 = test: NCI human tumor cell panel: NCI-H460 (Non-Small Cell Lung Cancer); format: cell-based; conditions: NCI-H460, Non-Small Cell Lung Cancer
KM12 = test: NCI human tumor cell panel: KM12 (Colon Cancer); format: cell-based; conditions: KM12, Colon Cancer
SF-295 = test: NCI human tumor cell panel: SF-295 (CNS Cancer); format: cell-based; conditions: SF-295, CNS Cancer
SF-539 = test: NCI human tumor cell panel: SF-539 (CNS Cancer); format: cell-based; conditions: SF-539, CNS Cancer
SNB-19 = test: NCI human tumor cell panel: SNB-19 (CNS Cancer); format: cell-based; conditions: SNB-19, CNS Cancer
LOX IMVI = test: NCI human tumor cell panel: LOX IMVI (Melanoma); format: cell-based; conditions: Melanoma
MALME-3M = test: NCI human tumor cell panel: MALME-3M (Melanoma); format: cell-based; conditions: MALME-3M, Melanoma
SK-MEL-28 = test: NCI human tumor cell panel: SK-MEL-28 (Melanoma); format: cell-based; conditions: SK-MEL-28, Melanoma
UACC-257 = test: NCI human tumor cell panel: UACC-257 (Melanoma); format: cell-based; conditions: UACC-257, Melanoma
IGROV1 = test: NCI human tumor cell panel: IGROV1 (Ovarian Cancer); format: cell-based; conditions: IGROV-1, IGROV1, Ovarian Cancer
OVCAR-3 = test: NCI human tumor cell panel: OVCAR-3 (Ovarian Cancer); format: cell-based; conditions: OVCAR-3, Ovarian Cancer
OVCAR-4 = test: NCI human tumor cell panel: OVCAR-4 (Ovarian Cancer); format: cell-based; conditions: OVCAR-4, Ovarian Cancer
OVCAR-5 = test: NCI human tumor cell panel: OVCAR-5 (Ovarian Cancer); format: cell-based; conditions: OVCAR-5, Ovarian Cancer
OVCAR-8 = test: NCI human tumor cell panel: OVCAR-8 (Ovarian Cancer); format: cell-based; conditions: OVCAR-8, Ovarian Cancer
786-0 = test: NCI human tumor cell panel: 786-0 (Renal Cancer); format: cell-based; conditions: 786-0, Renal Cancer
A498 = test: NCI human tumor cell panel: A498 (Renal Cancer); format: cell-based; conditions: A498, Renal Cancer
ACHN = test: NCI human tumor cell panel: ACHN (Renal Cancer); format: cell-based; conditions: Renal Cancer
TK-10 = test: NCI human tumor cell panel: TK-10 (Renal Cancer); format: cell-based; conditions: TK-10, Renal Cancer
UO-31 = test: NCI human tumor cell panel: UO-31 (Renal Cancer); format: cell-based; conditions: UO-31, Renal Cancer
PC-3 = test: NCI human tumor cell panel: PC-3 (Prostate Cancer); format: cell-based; conditions: PC-3, Prostate Cancer
MCF7/ADR-RES = test: NCI human tumor cell panel: MCF7/ADR-RES (Breast Cancer); format: cell-based; conditions: Breast Cancer
HS 578T = test: NCI human tumor cell panel: HS 578T (Breast Cancer); format: cell-based; conditions: Breast Cancer
MDA-MB-435 = test: NCI human tumor cell panel: MDA-MB-435 (Breast Cancer); format: cell-based; conditions: MDA-MB-435, Breast Cancer
BT-549 = test: NCI human tumor cell panel: BT-549 (Breast Cancer); format: cell-based; conditions: BT-549, Breast Cancer
HOP-92 = test: NCI human tumor cell panel: HOP-92 (Non-Small Cell Lung Cancer)
NCI-H522 = test: NCI human tumor cell panel: NCI-H522 (Non-Small Cell Lung Cancer)
[1] = read-out: Log10 GI50 (converted)
[2] = read-out: Log10 TGI (converted)

`O=Cc1ccc(-c2ccc(-c3ccc(C=O)[se]3)[se]2)[se]1` [NSC 675245] was tested, and the GI50 (K-562; [1]) was 6.76 µM, the IC (TGI) (K-562; [2]) was greater than 100 µM and the GI50 (RPMI-8226; [1]) was greater than 100 µM. It also gave an IC (TGI) (RPMI-8226; read-out: Log10 TGI) greater than 100 µM, a GI50 (SR; [1]) greater than 100 µM and an IC (TGI) (SR; [2]) greater than 100 µM. For the same compound, the GI50 (A549/ATCC; [1]) was greater than 100 µM, the IC (TGI) (A549/ATCC; [2]) was greater than 100 µM and the GI50 (EKVX; [1]) was greater than 100 µM. The IC (TGI) (EKVX; [2]) was greater than 100 µM, the GI50 (NCI-H322M; [1]) was greater than 100 µM and the IC (TGI) (NCI-H322M; [2]) was greater than 100 µM. For the same compound, the GI50 (NCI-H460; [1]) was 1.78 µM, the IC (TGI) (NCI-H460; [2]) was greater than 100 µM and the GI50 (KM12; [1]) was greater than 100 µM. For the same compound, the IC (TGI) (KM12; [2]) was greater than 100 µM, the GI50 (SF-295; [1]) was 49 µM and the IC (TGI) (SF-295; [2]) was greater than 100 µM. The GI50 (SF-539; [1]) was greater than 100 µM, the IC (TGI) (SF-539; [2]) was greater than 100 µM and the GI50 (SNB-19; [1]) was 29.5 µM. It also gave an IC (TGI) (SNB-19; [2]) greater than 100 µM, a GI50 (LOX IMVI; [1]) greater than 100 µM and an IC (TGI) (LOX IMVI; [2]) greater than 100 µM. For the same compound, the GI50 (MALME-3M; [1]) was greater than 100 µM, the IC (TGI) (MALME-3M; [2]) was greater than 100 µM and the GI50 (SK-MEL-28; [1]) was greater than 100 µM. For the same compound, the IC (TGI) (SK-MEL-28; [2]) was greater than 100 µM, the GI50 (UACC-257; [1]) was 0.324 µM and the IC (TGI) (UACC-257; [2]) was 0.912 µM. It also gave a GI50 (IGROV1; [1]) of 67.6 µM, an IC (TGI) (IGROV1; [2]) of 25.7 µM and a GI50 (OVCAR-3; [1]) of 0.389 µM. It also gave an IC (TGI) (OVCAR-3; [2]) greater than 100 µM, a GI50 (OVCAR-4; [1]) of 2.63 µM and an IC (TGI) (OVCAR-4; [2]) greater than 100 µM. For the same compound, the GI50 (OVCAR-5; [1]) was 0.776 µM, the IC (TGI) (OVCAR-5; [2]) was greater than 100 µM and the GI50 (OVCAR-8; [1]) was greater than 100 µM. The IC (TGI) (OVCAR-8; [2]) was greater than 100 µM, the GI50 (786-0; [1]) was 67.6 µM and the IC (TGI) (786-0; [2]) was greater than 100 µM. The GI50 (A498; [1]) was 0.309 µM, the IC (TGI) (A498; [2]) was 0.891 µM and the GI50 (ACHN; [1]) was 57.5 µM. The IC (TGI) (ACHN; [2]) was greater than 100 µM, the GI50 (TK-10; [1]) was 0.257 µM and the IC (TGI) (TK-10; [2]) was 0.813 µM. The GI50 (UO-31; [1]) was greater than 100 µM, the IC (TGI) (UO-31; [2]) was greater than 100 µM and the GI50 (PC-3; [1]) was greater than 100 µM. For the same compound, the IC (TGI) (PC-3; [2]) was greater than 100 µM, the GI50 (MCF7/ADR-RES; [1]) was greater than 100 µM and the IC (TGI) (MCF7/ADR-RES; [2]) was greater than 100 µM. It also gave a GI50 (HS 578T; [1]) of 87.1 µM, an IC (TGI) (HS 578T; [2]) greater than 100 µM and a GI50 (MDA-MB-435; [1]) greater than 100 µM. For the same compound, the IC (TGI) (MDA-MB-435; [2]) was greater than 100 µM, the GI50 (BT-549; [1]) was greater than 100 µM and the IC (TGI) (BT-549; [2]) was greater than 100 µM. For the same compound, the GI50 (HOP-92; HOP-92, read-out: Log10 GI50 (converted)) was greater than 100 µM, the IC (TGI) (HOP-92; HOP-92, read-out: Log10 TGI) was greater than 100 µM and the GI50 (NCI-H522; NCI-H522, read-out: Log10 GI50 (converted)) was 21.9 µM. It also gave an IC (TGI) (NCI-H522; NCI-H522, read-out: Log10 TGI) of 45.7 µM.
